Assays:
[1] = biological target: T1, Muscarinic acetylcholine receptor M1 (Homo sapiens, UniProt P11229); assay type: functional, cell-based
T1 sequence (P11229 whole entry): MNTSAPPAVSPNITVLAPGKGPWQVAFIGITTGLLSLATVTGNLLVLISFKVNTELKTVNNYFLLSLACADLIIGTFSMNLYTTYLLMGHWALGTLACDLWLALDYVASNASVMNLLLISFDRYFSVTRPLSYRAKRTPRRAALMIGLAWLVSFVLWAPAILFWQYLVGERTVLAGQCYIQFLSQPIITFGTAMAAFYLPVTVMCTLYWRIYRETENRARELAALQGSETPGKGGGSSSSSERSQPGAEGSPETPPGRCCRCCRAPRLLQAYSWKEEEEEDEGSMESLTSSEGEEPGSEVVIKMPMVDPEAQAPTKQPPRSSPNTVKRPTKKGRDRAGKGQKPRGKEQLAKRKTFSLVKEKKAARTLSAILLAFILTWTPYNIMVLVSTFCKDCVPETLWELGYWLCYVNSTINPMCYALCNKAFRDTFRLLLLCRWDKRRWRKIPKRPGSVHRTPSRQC

[2] = biological target: Prostaglandin G/H synthase 1 (Homo sapiens, UniProt P23219); assay type: functional
[3] = biological target: T2, Androgen receptor (Homo sapiens, UniProt P10275)
T2 sequence (P10275 whole entry): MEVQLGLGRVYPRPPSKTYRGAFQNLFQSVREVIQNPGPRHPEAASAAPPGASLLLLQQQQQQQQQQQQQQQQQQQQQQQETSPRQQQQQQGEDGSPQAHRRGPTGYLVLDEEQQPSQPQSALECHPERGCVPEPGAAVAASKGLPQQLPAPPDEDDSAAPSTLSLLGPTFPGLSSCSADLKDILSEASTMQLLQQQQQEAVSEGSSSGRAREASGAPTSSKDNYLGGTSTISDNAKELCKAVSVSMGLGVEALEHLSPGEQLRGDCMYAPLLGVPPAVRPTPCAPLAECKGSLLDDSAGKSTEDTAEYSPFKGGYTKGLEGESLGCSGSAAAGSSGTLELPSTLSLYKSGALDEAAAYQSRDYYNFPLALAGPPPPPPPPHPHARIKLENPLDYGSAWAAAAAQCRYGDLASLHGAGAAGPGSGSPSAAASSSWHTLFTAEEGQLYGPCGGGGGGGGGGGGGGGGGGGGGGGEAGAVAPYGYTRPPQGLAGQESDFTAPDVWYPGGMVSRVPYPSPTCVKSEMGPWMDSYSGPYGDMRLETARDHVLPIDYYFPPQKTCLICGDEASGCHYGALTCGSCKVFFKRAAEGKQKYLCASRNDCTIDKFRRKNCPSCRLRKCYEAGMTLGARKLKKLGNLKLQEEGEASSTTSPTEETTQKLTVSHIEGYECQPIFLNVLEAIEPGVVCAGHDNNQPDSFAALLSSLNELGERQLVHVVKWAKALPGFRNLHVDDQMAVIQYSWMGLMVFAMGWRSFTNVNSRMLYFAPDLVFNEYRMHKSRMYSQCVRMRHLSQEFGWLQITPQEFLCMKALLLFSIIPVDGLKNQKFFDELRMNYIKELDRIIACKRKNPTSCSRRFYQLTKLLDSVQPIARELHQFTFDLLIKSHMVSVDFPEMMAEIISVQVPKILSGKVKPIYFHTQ

[4] = biological target: T3, Gastrin/cholecystokinin type B receptor (Homo sapiens, UniProt P32239)
T3 sequence (P32239 whole entry): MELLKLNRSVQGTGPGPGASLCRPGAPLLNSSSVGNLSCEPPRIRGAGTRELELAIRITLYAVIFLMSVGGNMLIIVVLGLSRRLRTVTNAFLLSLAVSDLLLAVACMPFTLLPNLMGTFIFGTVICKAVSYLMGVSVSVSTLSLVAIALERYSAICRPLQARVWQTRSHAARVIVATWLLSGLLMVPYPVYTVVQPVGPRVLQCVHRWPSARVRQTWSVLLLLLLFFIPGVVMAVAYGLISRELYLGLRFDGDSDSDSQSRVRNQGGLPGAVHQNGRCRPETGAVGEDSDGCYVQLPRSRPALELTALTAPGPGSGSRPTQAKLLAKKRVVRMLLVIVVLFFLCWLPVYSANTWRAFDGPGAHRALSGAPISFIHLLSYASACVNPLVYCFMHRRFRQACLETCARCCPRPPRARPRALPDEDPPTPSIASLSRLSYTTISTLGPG

[5] = biological target: T4, Thromboxane A2 receptor (Homo sapiens, UniProt P21731)
T4 sequence (P21731 whole entry): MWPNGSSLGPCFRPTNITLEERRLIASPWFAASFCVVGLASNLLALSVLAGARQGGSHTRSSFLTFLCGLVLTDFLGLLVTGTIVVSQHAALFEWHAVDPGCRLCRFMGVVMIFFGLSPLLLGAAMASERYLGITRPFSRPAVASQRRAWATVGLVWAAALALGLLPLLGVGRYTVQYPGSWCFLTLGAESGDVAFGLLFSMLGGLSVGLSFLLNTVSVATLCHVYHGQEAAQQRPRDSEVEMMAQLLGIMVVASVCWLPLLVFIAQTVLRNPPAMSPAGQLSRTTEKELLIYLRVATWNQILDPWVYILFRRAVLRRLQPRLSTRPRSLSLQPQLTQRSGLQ

[6] = biological target: T5, Alpha-1A adrenergic receptor (Homo sapiens, UniProt P35348)
T5 sequence (P35348 whole entry): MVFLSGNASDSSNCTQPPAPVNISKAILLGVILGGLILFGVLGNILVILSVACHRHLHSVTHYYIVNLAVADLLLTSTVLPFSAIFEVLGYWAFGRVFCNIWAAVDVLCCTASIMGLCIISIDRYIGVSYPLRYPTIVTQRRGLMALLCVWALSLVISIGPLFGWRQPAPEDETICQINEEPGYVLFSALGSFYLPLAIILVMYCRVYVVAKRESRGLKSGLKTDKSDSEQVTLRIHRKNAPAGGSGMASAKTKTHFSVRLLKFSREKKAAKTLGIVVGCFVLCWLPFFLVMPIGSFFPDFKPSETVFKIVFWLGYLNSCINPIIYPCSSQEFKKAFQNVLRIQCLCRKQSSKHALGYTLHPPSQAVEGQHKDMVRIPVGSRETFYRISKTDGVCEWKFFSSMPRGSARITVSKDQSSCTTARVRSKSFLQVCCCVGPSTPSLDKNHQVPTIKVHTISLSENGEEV

[7] = biological target: Vasopressin V1a receptor (Homo sapiens, UniProt P37288)
[8] = biological target: T6, Cannabinoid receptor 1 (Homo sapiens, UniProt P21554); assay type: functional, cell-based
[9] = biological target: T6, Cannabinoid receptor 1; assay type: functional, cell-based; remark: listed apart in the source
[10] = biological target: Beta-2 adrenergic receptor (Homo sapiens, UniProt P07550); assay type: functional, cell-based
Note: assay procedure not described here.

T6 sequence (P21554 whole entry): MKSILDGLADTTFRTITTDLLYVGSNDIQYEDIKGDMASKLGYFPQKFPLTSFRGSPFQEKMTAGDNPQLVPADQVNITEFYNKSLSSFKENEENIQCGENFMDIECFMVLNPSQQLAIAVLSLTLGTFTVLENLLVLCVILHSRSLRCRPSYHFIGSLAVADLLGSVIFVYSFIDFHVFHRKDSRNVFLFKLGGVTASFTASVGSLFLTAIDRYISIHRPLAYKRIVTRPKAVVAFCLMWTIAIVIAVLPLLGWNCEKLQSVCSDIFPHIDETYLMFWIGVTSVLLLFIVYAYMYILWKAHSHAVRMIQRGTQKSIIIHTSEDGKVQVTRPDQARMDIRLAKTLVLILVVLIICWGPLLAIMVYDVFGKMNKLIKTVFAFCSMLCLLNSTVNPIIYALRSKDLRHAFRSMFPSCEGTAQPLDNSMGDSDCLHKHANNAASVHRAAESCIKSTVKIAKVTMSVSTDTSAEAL
Sequence of Prostaglandin G/H synthase 1 (P23219 whole entry): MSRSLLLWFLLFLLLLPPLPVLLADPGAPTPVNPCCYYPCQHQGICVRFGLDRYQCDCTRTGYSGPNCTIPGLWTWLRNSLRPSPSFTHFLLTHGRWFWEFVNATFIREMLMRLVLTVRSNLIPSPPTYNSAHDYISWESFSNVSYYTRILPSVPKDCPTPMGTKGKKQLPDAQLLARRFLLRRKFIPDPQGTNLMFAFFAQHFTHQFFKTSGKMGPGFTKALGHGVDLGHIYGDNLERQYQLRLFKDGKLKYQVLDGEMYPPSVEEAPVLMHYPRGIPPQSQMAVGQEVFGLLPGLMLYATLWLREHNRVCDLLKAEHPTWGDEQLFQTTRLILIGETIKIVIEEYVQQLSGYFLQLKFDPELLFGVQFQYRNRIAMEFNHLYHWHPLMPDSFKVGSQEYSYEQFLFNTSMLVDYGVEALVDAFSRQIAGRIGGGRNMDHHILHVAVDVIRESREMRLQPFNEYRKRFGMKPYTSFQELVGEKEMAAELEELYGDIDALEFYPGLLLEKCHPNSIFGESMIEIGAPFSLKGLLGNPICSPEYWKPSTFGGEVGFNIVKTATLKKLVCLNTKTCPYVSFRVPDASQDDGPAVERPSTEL
Sequence of Beta-2 adrenergic receptor (P07550 whole entry): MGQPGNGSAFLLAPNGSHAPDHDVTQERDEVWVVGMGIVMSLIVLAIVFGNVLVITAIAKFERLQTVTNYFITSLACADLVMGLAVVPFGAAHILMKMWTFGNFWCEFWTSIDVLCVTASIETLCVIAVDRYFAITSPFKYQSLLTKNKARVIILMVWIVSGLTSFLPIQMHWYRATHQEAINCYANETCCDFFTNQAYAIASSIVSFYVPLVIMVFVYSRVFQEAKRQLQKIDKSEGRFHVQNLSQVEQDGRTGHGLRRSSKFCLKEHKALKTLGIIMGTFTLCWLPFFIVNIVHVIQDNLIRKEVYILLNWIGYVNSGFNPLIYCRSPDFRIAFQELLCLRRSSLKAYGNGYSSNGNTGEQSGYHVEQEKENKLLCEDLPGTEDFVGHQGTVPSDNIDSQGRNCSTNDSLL
Sequence of Vasopressin V1a receptor (P37288 whole entry): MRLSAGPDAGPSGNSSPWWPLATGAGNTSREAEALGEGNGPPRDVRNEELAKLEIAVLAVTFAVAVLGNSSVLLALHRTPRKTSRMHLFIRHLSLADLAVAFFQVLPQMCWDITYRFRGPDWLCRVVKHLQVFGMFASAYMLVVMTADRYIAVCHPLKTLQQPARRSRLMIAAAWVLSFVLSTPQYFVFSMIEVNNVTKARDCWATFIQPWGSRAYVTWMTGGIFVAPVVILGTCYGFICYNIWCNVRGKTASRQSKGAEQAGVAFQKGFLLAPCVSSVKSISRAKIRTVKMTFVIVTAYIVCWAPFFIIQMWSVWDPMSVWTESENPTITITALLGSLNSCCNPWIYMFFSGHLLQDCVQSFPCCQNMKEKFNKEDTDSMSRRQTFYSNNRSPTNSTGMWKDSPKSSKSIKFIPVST

Row | SMILES | AC50 [1] [µM] | AC50 [2] [µM] | AC50 [3] [µM] | other results
1 | Cc1cc2c(cc1S(N)(=O)=O)S(=O)(=O)CCC2 | > 30 | > 30 | – | –
2 | C[C@H](N[C@@H](CCc1ccccc1)C(=O)O)C(=O)N1Cc2ccccc2C[C@H]1C(=O)O | > 30 | > 30 | > 30 | –
3 | O=C(O)[C@@H]1C[C@@H](O)CN1 | > 30 | > 30 | > 30 | –
4 | CC1(C)S[C@@H]2[C@H](/N=C/N3CCCCCC3)C(=O)N2[C@H]1C(=O)O [AMDINOCILLIN] | > 30 | 14.5 | – | –
5 | CC(=O)[C@]1(N)Cc2c(O)c3c(c(O)c2[C@@H](O[C@H]2C[C@H](O)[C@H](O)CO2)C1)C(=O)c1ccccc1C3=O [AMRUBICIN] | > 3 | 3.62 | > 30 | –
6 | NC(=O)[C@@H]1CC[C@@H]2CN1C(=O)N2OS(=O)(=O)O [AVIBACTAM] | > 30 | > 30 | > 30 | –
7 | CC(=O)OC[C@H]1O[C@@H](n2ncc(=O)[nH]c2=O)[C@H](OC(C)=O)[C@@H]1OC(C)=O [AZARIBINE] | – | > 30 | > 30 | –
8 | O=C(/C=C/c1cccc(S(=O)(=O)Nc2ccccc2)c1)NO [BELINOSTAT] | – | 5.61 | > 30 | AC50 [4]: > 30 µM; AC50 [5]: > 30 µM; AC50 [6]: > 10 µM; AC50 [7]: > 10 µM
9 | CC(O)(CS(=O)(=O)c1ccc(F)cc1)C(=O)Nc1ccc(C#N)c(C(F)(F)F)c1 (stereo unspecified) [BICALUTAMIDE] | – | > 30 | – | AC50 [4]: > 30 µM; AC50 [8]: > 30 µM; AC50 [5]: > 30 µM; AC50 [9]: > 30 µM; AC50 [6]: > 10 µM; AC50 [7]: > 30 µM; AC50 [10]: > 30 µM
10 | CC(C)(C)NC(=O)N[C@H](C(=O)N1C[C@H]2[C@@H]([C@H]1C(=O)NC(CC1CCC1)C(=O)C(N)=O)C2(C)C)C(C)(C)C (stereo partly specified) [BOCEPREVIR] | > 30 | > 30 | > 30 | –
11 | Cc1ncc2c(c1O)COC2c1ccc(Cl)cc1 (stereo unspecified) [CICLETANINE] | > 30 | > 30 | > 30 | –
12 | Cc1cn([C@H]2O[C@@H](CO)[C@H](O)[C@H]2F)c(=O)[nH]c1=O [CLEVUDINE] | > 30 | > 30 | – | –
13 | N#Cc1ccc(Oc2ccc3c(c2)COB3O)cc1 [CRISABOROLE] | 13.7 | > 30 | > 30 | –
14 | CC(=O)[C@H]1CC[C@H]2[C@@H]3C=CC4=CC(=O)CC[C@@]4(C)[C@@H]3CC[C@]12C [DYDROGESTERONE] | 5.06 | > 30 | – | –
15 | CC(=O)O[C@H]1Cc2ccccc2N(C(N)=O)c2ccccc21 [ESLICARBAZEPINE ACETATE] | > 30 | > 30 | > 30 | –
16 | Cc1ccc(S(=O)(=O)NC(=O)NC2CCCCC2)cc1 [GLYCYCLAMIDE] | > 30 | > 30 | – | –

Row | SMILES | AC50 [1] [µM] | AC50 [2] [µM] | AC50 [3] [µM] | other results
17 | CN1CCCN(C(c2ccccc2)c2ccc(Cl)cc2)CC1 (stereo unspecified) [HOMOCHLORCYCLIZINE] | 0.12 | > 30 | > 30 | –
18 | CC(=O)OCC(=O)[C@@]1(O)CC[C@H]2[C@@H]3CCC4=CC(=O)CC[C@]4(C)[C@H]3[C@@H](O)C[C@@]21C [HYDROCORTISONE ACETATE] | 17.7 | > 30 | – | –
19 | CC(COc1ccccc1)NC(C)C(O)c1ccc(O)cc1 (stereo unspecified) [ISOXSUPRINE] | > 30 | > 30 | – | –
20 | O=C(CCC/C=C\C[C@@H]1[C@@H](CC[C@@H](O)CCc2ccccc2)[C@H](O)C[C@@H]1O)OCCCCO[N+](=O)[O-] [LATANOPROSTENE BUNOD] | > 10 | > 30 | > 30 | –
21 | Cc1oc(=O)oc1COC(=O)[C@@H]1N2C(=O)[C@@H](NC(=O)[C@H](N)c3ccccc3)[C@H]2SC1(C)C [LENAMPICILLIN] | 9.21 | > 30 | > 30 | –
22 | COc1ccc(OC)c(C(O)C(C)N)c1 (stereo unspecified) [METHOXAMINE] | > 30 | > 30 | > 30 | –
23 | CC1(CCN2CCCCC2)C(=O)CCc2ccccc21 (stereo unspecified) [NEPINALONE] | > 30 | > 30 | > 30 | –
24 | COC(=O)C[C@](O)(CCCC(C)(C)O)C(=O)O[C@@H]1C(OC)=C[C@]23CCCN2CCc2cc4c(cc2[C@H]13)OCO4 [OMACETAXINE MEPESUCCINATE] | > 30 | > 10 | > 30 | –
25 | COc1cccc(C(=O)CCN[C@@H](C)[C@H](O)c2ccccc2)c1 [OXYFEDRINE] | > 30 | > 30 | > 30 | –
26 | CC[N+](C)(CC)CCOC(=O)C(O)(c1ccccc1)C1CCCCC1 (stereo unspecified) [OXYPHENONIUM] | 0.003 | > 30 | – | –
27 | C[C@@H]1C[C@H]2[C@@H]3C[C@H](F)C4=CC(=O)C=C[C@]4(C)[C@H]3[C@@H](O)C[C@]2(C)[C@@]1(O)C(=O)CO [PARAMETHASONE] | > 30 | > 30 | 3.48 | –
28 | CCC[C@H](N[C@@H](C)C(=O)N1[C@H](C(=O)O)C[C@@H]2CCCC[C@@H]21)C(=O)OCC [PERINDOPRIL] | > 30 | > 30 | – | –
29 | N[C@@H](Cc1ccccc1)C(=O)O [PHENYLALANINE] | > 30 | 28 | – | –
30 | CCCn1cnc2c1c(=O)n(CCCCC(C)=O)c(=O)n2C [PROPENTOFYLLINE] | > 30 | > 30 | > 30 | –
31 | Clc1ccc(C(Cn2ccnc2)OCc2csc3c(Cl)cccc23)c(Cl)c1 (stereo unspecified) [SERTACONAZOLE] | 9.44 | 7.68 | 0.0201 | –
32 | O=S1(=O)CCN(CN2CCS(=O)(=O)NC2)CN1 [TAUROLIDINE] | – | > 30 | > 30 | AC50 [8]: > 30 µM; AC50 [5]: > 30 µM; AC50 [9]: > 30 µM; AC50 [10]: > 30 µM

— ChEMBL document CHEMBL5291721, “A preclinical secondary pharmacology resource illuminates target-adverse drug reaction associations of marketed drugs” (Nat Commun, 2023)
